Laboratory results taken from patent publication US9796777B2, “Methods of treating malignant tumors” (Canimguide Therapeutics AB, priority 2007, dated 2017).

How the values were obtained:
[1] = system: cell surface receptors of immune cells (ACS); assay: Adsorption of enzyme fragmented dHSA on affinity column with biotinylated cell surface proteins (ACS), MALDI-TOF ms; assay type: binding, human
Method: Based on the observation that immunoregulatory peptide sequences are present in serum albumin, there is the possibility that other sequences than the epitope of mAb A have immunoregulatory function. Therefore an artificial cell surface (ACS) was prepared as described in materials and methods. […]
To remove unfragmented albumin and enzyme, the sample was ultra filtered through an Amicon Ultra 4 (mw cut-off of 5000) or a Centriplus (mw cut-off 10000) centrifugal filter (Millipore AB, Solna, Sweden). The filtrate, containing fragmented dHSA without enzymes, was collected and diluted with PBS with Ca and Mg (GIBCO).
Buffy coats generated from 450 ml blood each was collected from 4 healthy donors. Erythrocytes were removed by sedimentation on 2% dextran T500 solution (Amersham Pharmacia Biotech AB, Uppsala Sweden) in 0.9% NaCl. Mononuclear cells (PBMC) were then isolated by Ficoll-Paque Plus (GE Healthcare Bioscience AB Sweden) density gradient centrifugation. The PBMC were then suspended in phosphate buffered saline (PBS) containing Ca and Mg (GIBCO) at a concentration of 10×10^6/ml. EZ Link Sulfo-NHS-biotin (Pierce USA) was added at a final concentration of 0.2 mg/ml and the mixture incubated on a shaker at room temperature for 10 min. Excess biotin was then removed by washing the PBMC in PBS. Biotinylated PBMC were then lysed by adding 1.0 ml ice-cold lysing buffer (50 mM Tris-HCL, pH 7.5, with 0.15 M NaCl, 5 mM MgCl2 containing 100 mM Octyl glucoside and 1 mM Phenylmethylsulfonyl fluoride) per 2×10^7 pelleted cells with gentle shaking, then incubated for 30 min. on ice. Debris was removed by centrifugation at 5000×g at 4° C. for 10 min and the supernatants was collected and pooled from all four donors. The lysate was then stored at −70° C. in polypropylene plastic tubes.
This amount of lysate corresponds to 36×10^7 mononuclear cells. It was added to a 1 ml Hitrap Streptavidin HP affinity column (Amersham Biosciences). To block possible remaining free biotin, 5 ml of 0.1 M glycine (Sigma) was added to the column. Unsaturated streptavidin on the column was then reacted with 150 ug biotin (Sigma) in binding buffer. The column was carefully washed with PBS and stored in PBS with 0.1% NaN3 at 4° C. until use.
27 ml biotinylated cell lysate in binding buffer (corresponding to 54×10^7 mononuclear cells) was added to 1.5 ml washed Streptavidin Sepharose HP (Amersham Biosciences). To block possible remaining free biotin, 25 ml of 0.1 M glycine (Sigma) was added to the Streptavidin Sepharose. Unsaturated streptavidin was then reacted with 225 μg biotin (Sigma) in binding buffer. The Streptavidin Sepharose was carefully washed in PBS. One ml of the biotinylated cell lysate coupled Streptavidin Sepharose was then packed in an empty column (Tricorn Empty High Performance Column, Amersham Bioscience) and washed with phosphate buffered saline (PBS) containing Ca and Mg (GIBCO).
The flow-through was collected with consideration taken to void volume and dilution of adsorbed sample by collecting in small portions of 0.2 ml. Thirty ul of each sample, including a control sample that has not been adsorbed, were dried in a Speed-Vac centrifuge.
Dried samples were reconstituted in 10 ul of 0.1% TFA. Zip Tip pipette tips (Millipore, USA) containing C18 reversed-phase media were used for desalting reconstituted samples. […] For the analysis of samples in the mass range 1500-9000 Da, one μl of each Zip Tip eluted sample was mixed with 1 μl of sinapinic acid ([…]). […] Mass identity search of resulting spectra was performed in the SwissProt or NCBI databases using MS-Fit.

mAb A = details: second trypsination of <30 kD fragments eluted from mAb A at pH 2.7
Method: MALDI epitope mapping of mAb A based on antibody protection of proteolysis was repeated. This time a slightly different approach was used. Denatured HSA was incubated with mAb A. Albumin not bound by the antibody, was removed from the sample by size exclusion on an ultra filter. The remaining free mabs and the complexes of mab-albumin was then digested with trypsin (sequences of the albumin molecule to which mab is bound should resist the trypsin digestion). Small cleaved fragments of mab and unprotected albumin was then removed from the sample by ultrafiltration (30 kD). The complexes of mAb and bound albumin fragments were dissociated by lowering the pH to 2.7. Again ultrafiltration at 30 kD was performed to separate whole mAb from albumin fragments smaller than 30 kD.
Denatured HSA (80 μg) was incubated with mAb A (10 μg) in PBS for 18 h at room temperature. […] The retentate was diluted in 25 mM NH4HCO3 and again centrifuged as described above. The retentate was transferred to a sterile eppendorf microcentrifuge tube in 0.4 ml 25 mM NH4HCO3 and 0.4 μg sequencing grade modified trypsin (Promega) was added. Digestion was carried out at 37° C. over night with gentle agitation. Trypsin and free (not antibody-bound) albumin fragments were removed by ultrafiltration on a Amicon Ultra-4 filter (mw cut-off 30 000 Da, Millipore Co.) for 5 min at 3000 rpm. This was repeated three times. The retentate was then transferred to a new ultra filter where the mAb A was disassociated from bound albumin by the addition of 600 μl 0.1 M glycine-HCl, pH 2.7, for 30 min at room temperature after which the ultra filter was centrifuged for 10 min at 3000 rpm. The filtrate was transferred to a sterile Eppendorf microcentrifuge tube and neutralized with Tris-HCl, pH 9. The sample was then immediately dried over night in a SpeedVac vacuum concentrator. The samples were then dissolved in 16 μl of sequencing grade modified trypsin (at 5 μg/ml) (Promega) and incubated at 37° C. for 18 hours. Zip Tip pipette tips (Millipore) containing C18 chromatorgraphy media were used for desalting before the sample was analysed by MALDI TOF ms (see below).
1 μl of each sample of the tryptic digestion was mixed with 1 μl of a saturated solution of α-cyano-4-hydroxycinamic acid ([…]) in 70% acetonitrile/0.3% trifluoro acetic acid. 1 μl of that mixture was spotted on a stainless steel target plate and analysed using MALDI-TOF ms (Voyager-DE PRO, Applied Biosystems, CA, US) equipped with a 337 nm N2 laser. Database searches for masses corresponding to human serum albumin in the resulting spectra were performed in NCBI or SwissProt with MS-Fit as search engine.

PBMC [2] = assay: IL-2 induced proliferation of PBMC with albumin peptides in coated and uncoated tissue culture plates; assay type: cell-based, human; details: PBMC from healthy individuals; peptide 5 μg/ml final; 7 days
Method: A mixture of 1 mg/ml IgG in a solution of 9 mg/ml HSA in RPMI (HSA/IgG) was also prepared. 200 μl of HSA or HSA/IgG were then added to each well of the plate. The plates were incubated at 4° C. for 30 minutes after which the wells were washed twice with 200 μl of RPMI1640. The coated plates were used immediately. […] PBMC, isolated from healthy individuals, were diluted in RPMI/2% HSA and peptides were added directly to the cell suspension at a concentration of 10 μg/ml.

PBMC [3] = assay: LPS-induced IL-6 production by PBMC, effect of peptides; assay type: cell-based, human
Method: 100 μl of culture medium consisting of RPMI1640 supplemented with 200 IU/ml penicillin, 200 μg/ml streptomycin, 4 mM L-glutamine (Sigma Chemical, Mo., US) and 20% fresh heat-inactivated autologous serum were added to un-coated or -pre-coated microtiter plates followed by 100 μl of PBMC suspension (5×10^4 lymphocytes) in RPMI/2% HSA with peptides at the indicated concentrations. Lipoplysaccharide (LPS, Sigma Chemical Co, MO, US) was added at a final concentration of 0.05 ng/ml. […] All assay conditions were set up in triplicate wells. Supernatants (SNs) were harvested after 24 hrs and residual cells were removed by centrifugation in a refrigerated centrifuge (Beckman) at 2600×g for 5 minutes. SNs were frozen and stored at −70° C. IL-6 in cell culture SNs was measured by ELISA using the DuoSet® ELISA development kit for human IL-6 (R&D Systems Europe, Ltd., Abingdon, UK) following the manufacturer's recommended procedures. The lower limit of detection was 3.1 pg/ml. Samples were analysed as mean of triplicate wells.

[4] = target: T1, β2-integrin LFA-1 (CD11a) (Homo sapiens, UniProt P20701); assay: Immunocytochemical staining of PBMC and THP-1 with anti-integrin (CD11a) antibody with or without albumin peptides; assay type: binding; details: monocytic cell line THP-1; peptide 40 μg/ml preincubation
T1 construct: endogenous in cells; host or cells: human PBMC (healthy controls, cancer patients) and THP-1 monocytic cell line (ATCC)
T1 sequence (P20701 26-1170): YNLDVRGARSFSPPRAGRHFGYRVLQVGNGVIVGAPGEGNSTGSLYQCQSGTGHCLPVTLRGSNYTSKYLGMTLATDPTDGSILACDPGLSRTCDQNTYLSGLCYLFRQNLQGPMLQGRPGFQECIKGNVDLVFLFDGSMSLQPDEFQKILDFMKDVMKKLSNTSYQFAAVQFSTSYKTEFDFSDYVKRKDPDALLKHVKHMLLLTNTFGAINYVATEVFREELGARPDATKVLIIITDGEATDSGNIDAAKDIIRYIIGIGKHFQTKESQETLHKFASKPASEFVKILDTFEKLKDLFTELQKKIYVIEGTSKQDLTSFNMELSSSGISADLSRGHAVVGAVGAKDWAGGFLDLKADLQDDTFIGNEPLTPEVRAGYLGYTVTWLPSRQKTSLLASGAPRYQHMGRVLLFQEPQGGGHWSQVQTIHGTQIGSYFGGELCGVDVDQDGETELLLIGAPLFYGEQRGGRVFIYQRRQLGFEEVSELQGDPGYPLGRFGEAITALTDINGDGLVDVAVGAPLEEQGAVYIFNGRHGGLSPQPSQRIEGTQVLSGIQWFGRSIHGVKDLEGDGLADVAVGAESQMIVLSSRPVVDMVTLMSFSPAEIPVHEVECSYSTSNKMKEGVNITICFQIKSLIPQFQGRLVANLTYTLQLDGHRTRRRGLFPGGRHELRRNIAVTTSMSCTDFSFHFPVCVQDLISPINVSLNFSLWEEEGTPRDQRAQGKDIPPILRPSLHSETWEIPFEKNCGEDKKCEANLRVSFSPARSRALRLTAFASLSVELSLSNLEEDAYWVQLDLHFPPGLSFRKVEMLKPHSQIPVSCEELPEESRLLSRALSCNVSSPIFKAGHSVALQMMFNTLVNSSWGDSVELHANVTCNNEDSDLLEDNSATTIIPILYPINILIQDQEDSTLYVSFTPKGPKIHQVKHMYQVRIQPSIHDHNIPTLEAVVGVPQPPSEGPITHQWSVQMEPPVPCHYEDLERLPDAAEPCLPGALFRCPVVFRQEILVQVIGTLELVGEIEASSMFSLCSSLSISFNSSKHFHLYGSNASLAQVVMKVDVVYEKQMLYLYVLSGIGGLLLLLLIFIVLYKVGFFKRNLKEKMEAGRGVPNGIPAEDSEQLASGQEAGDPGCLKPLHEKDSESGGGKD
T1 sequence (P05107 23-769 partner): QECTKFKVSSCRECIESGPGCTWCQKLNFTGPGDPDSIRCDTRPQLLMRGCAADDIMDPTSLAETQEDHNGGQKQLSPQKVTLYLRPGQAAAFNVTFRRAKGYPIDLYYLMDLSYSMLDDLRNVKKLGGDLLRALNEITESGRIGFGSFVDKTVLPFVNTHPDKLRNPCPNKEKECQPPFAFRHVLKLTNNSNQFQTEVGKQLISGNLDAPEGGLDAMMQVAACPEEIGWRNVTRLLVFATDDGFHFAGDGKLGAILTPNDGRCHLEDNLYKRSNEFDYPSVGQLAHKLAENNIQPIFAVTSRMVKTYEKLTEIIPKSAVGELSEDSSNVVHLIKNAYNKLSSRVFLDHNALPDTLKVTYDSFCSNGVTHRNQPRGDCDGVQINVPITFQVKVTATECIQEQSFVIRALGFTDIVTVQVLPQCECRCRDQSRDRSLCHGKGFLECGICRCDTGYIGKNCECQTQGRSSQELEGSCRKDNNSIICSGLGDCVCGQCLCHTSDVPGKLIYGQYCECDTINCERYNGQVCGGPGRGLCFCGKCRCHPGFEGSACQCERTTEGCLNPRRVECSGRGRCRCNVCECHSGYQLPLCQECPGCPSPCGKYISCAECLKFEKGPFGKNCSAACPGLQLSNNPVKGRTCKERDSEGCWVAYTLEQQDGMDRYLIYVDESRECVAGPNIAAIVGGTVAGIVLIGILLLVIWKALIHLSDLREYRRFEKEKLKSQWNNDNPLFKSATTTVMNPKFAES
Method: Cytospin preparations of mononuclear blood cells from healthy controls, cancer patients and a monocytic cell line, THP-1, were prepared (as described under materials and methods), dried and stored at −70° C. In the immunocytological staining, unspecific staining was blocked by incubation with 10% human AB serum. Some of the slides were preincubated for 60 minutes with albumin peptides at a concentration of 40 μg/ml, added to this 10% AB serum, as indicated in the FIG. 8 A-F. The staining procedure was then continued as described in material and methods. The staining intensity of slides stained with and without preincubation with the peptides was recorded semi quantitatively using a standard light microscope.
PBMC were separated as described above. Cultured THP-1 cells (obtained from the American Type Culture Collection through LGL Nordic AB, Sweden) were carefully washed and suspended in RPMI1640. PBMC and THP-1 were immediately spun down on pre-cleaned microscope slides in a Shandon Cytospin (Shandon Scientific Ltd, UK) at 1000 RPM for 7 min at 2.5 or 5×10^4 cells per slide. The slides were left to dry at room temperature over night, after which they were wrapped in parafilm and stored at −70° C. Immediately before use, the cytospins were thawed and fixed with acetone for 5 min at room temperature. The cytospins were first blocked with 10% normal human AB-serum with and without albumin peptides (40 ␣g/ml) for 1 h before staining. Primary antibody, consisting of a monoclonal mouse anti-human CD11a (clone HI111, BD Biosciences) diluted in Tris buffered saline (TBS, pH 7.6) at 5 μg/ml (THP-1) or 1 µg/ml (PBMC), was added. The slides were incubated for 30 min and then washed in TBS followed by Envision-Alkaline Phosphatase (Dako Norden A/S, Denmark) for 30 min. After additional washing in TBS, the slides were incubated in alkaline phoshatase substrate consisting of Fast Red TR salt (Sigma), naphtol AS-MX (Sigma) and 5 mM levamisol (Sigma) to block endogenous alkaline phosphatase activity, for 20 min followed by washing in TBS. They were then counterstained in Mayer's haematoxylin for 1 minute and mounted in Glycergel (Dako Norden NS). Monoclonal mouse IgG1 against an irrelevant antigen (Aspergillus niger glukosoxidase, Dako Norden NS) was used as a negative control. All incubations were performed at room temperature in a moist chamber.
FIG. 24. Inhibition of the binding of anti-LFA-1, mab HI111, to mononuclear blood cells by 3028 peptide and fragments 3325 and 3218. A standard immunohistochemical staining procedure using acetone fixation, 10% human AB-serum for blocking, incubation with HI 111 and a secondary antibody (Ultravision, an alkaline phosphate conjugated polymer attached to Fab-fragments of goat anti-mouse Ig), followed by development with Fast Red. The slides were then mounted in Glycergel. Preincubation with peptides added to the AB serum was as follows: A. No peptide added, B. peptide 3028, C. The C-terminal part (3218), and D. The N-terminal part (3325).

[5] = Table 5 A, peptides generated by trypsin degradation of dHSA

Substance | Per cent adsorbed [1, 5] | Peak area (mAb A) | further results
LVNEVTEFAK [066-075] | -0.02 Per cent | 1918 | –
KVPQVSTPTLVEVSR [compound 3029] | 0.64 Per cent | – | effect on IL-2 induced proliferation (PBMC [2]): no statistically significant activity; Per cent adsorbed ([1]; Table 5 B, trypsin peptides selected for synthesis): 0.64 Per cent; effect on LPS induced IL-6 production (PBMC [3]; three cancer patients): essentially no effects; effect on LPS induced IL-6 production (PBMC [3]; two healthy controls): slight stimulatory effect in only one of the controls
YLYEIAR [162-168] | 0.34 Per cent | 1035 | –
LCTVATLR [098-105] | 0.35 Per cent | 744 | –
DDNPNLPR | 0.01 Per cent | 534 | –
CCTESLVNR [500-508] | 0.26 Per cent | 119 | –
LDELRDEGK [206-214] | 0.02 Per cent | 644 | –
LSQRFPK | – | 481 | –
FQNALLVR [427-434] | 0.41 Per cent | 1345 | –
KLDELRDEGKAS [peptide 2606] | – | – | effect on binding of the mAb to LFA-1 [4]: clearly enhanced; effect on LPS induced IL-6 production (PBMC [3]; PBMCs from one healthy control, lowest peptide concentration): inhibitory
